# Data published in the RepoRT retention time repository (doi:10.1016/j.jchromb.2020.122105).
# Experiments:
# Details in all cases: stereoisomer not certain
# [1] = RP, Waters CORTECS T3, 100 × 2.1 mm, 2.7 µm, 0.15 mL/min, estimated dead time 1.5 min; A: water + 0.1% formic acid, pH 3; B: methanol + 0.1% formic acid, pH 3; gradient (min/%B) 0/0 1/0 6/5 30/100 35/100 35.1/0 40/0
# [2] = RP, Waters CORTECS T3, 100 × 2.1 mm, 2.7 µm, 0.3 mL/min, estimated dead time 0.73 min; A: water + 0.1% formic acid, pH 3; B: methanol + 0.1% formic acid, pH 3; gradient (min/%B) 0/0 5/0 25/100 30/100 30.1/0 35/0
# [3] = RP, Thermo Scientific Hypercarb, 150 × 2.1 mm, 5 µm, 0.1 mL/min, estimated dead time 3.3 min; A: water + 0.1% formic acid, pH 3; B: methanol + 0.1% formic acid, pH 3; gradient (min/%B) 0/5 5/5 20/100 35/100 35.1/5 45/5
# [4] = HILIC, Waters XBridge BEH Amide, 100 × 2.1 mm, 2.5 µm, 0.5 mL/min, estimated dead time 0.44 min; A: water + 0.1% acetic acid + 10 mM ammonium acetate, pH 4; B: 5% water + 95% acetonitrile + 0.1% acetic acid + 10 mM ammonium acetate, pH 4; gradient (min/%B) 0/95 5/95 20/57 25/57 30/95 40/95
# [5] = RP, Waters ACQUITY UPLC BEH C18, 100 × 2.1 mm, 1.7 µm, 0.2 mL/min, estimated dead time 1.1 min; A: water + 0.025% formic acid + 20 mM ammonium acetate + 0.055% ammonium hydroxide, pH 7; B: methanol; gradient (min/%B) 0/5 5/5 25/100 30/100 30.1/5 35/5
# [6] = as above; remark: listed apart in the source
# [7] = RP, Waters CORTECS T3, 100 × 2.1 mm, 2.7 µm, 0.3 mL/min, estimated dead time 0.73 min; A: water + 0.1% formic acid, pH 3; B: methanol + 0.1% formic acid, pH 3; gradient (min/%B) 0/5 5/5 25/100 30/100 30.1/5 35/5
# [8] = RP, Waters CORTECS T3, 100 × 2.1 mm, 2.7 µm, 0.2 mL/min, estimated dead time 1.1 min; A: water + 0.1% formic acid, pH 3; B: methanol + 0.1% formic acid, pH 3; gradient (min/%B) 0/0 1/0 6/5 30/100 35/100 35.1/0 40/0
# [9] = RP, Waters CORTECS T3, 100 × 2.1 mm, 2.7 µm, 0.1 mL/min, estimated dead time 2.2 min; A: water + 0.1% formic acid, pH 3; B: methanol + 0.1% formic acid, pH 3; gradient (min/%B) 0/0 1/0 6/5 30/100 35/100 35.1/0 40/0
# [10] = RP, Waters CORTECS T3, 100 × 2.1 mm, 2.7 µm, 0.3 mL/min, estimated dead time 0.73 min; A: water + 0.1% formic acid, pH 3; B: methanol + 0.1% formic acid, pH 3; gradient (min/%B) 0/5 5/5 25/95 25.1/100 35/100 35.1/5 45/5
# [11] = RP, Waters CORTECS T3, 100 × 2.1 mm, 2.7 µm, 0.3 mL/min, estimated dead time 0.73 min; A: water + 0.1% formic acid, pH 3; B: methanol + 0.1% formic acid, pH 3; gradient (min/%B) 0/0 1/0 6/5 30/100 35/100 35.1/0 40/0
# [12] = RP, Waters ACQUITY UPLC BEH C18, 100 × 2.1 mm, 1.7 µm, 0.1 mL/min, estimated dead time 2.2 min; A: water + 0.1% formic acid, pH 3; B: methanol + 0.1% formic acid, pH 3; gradient (min/%B) 0/5 5/5 25/100 30/100 30.1/5 35/5
# [13] = RP, Waters CORTECS T3, 100 × 2.1 mm, 2.7 µm, 0.2 mL/min, estimated dead time 1.1 min; A: water + 0.045% formic acid + 0.11% ammonium hydroxide, pH 7; B: methanol; gradient (min/%B) 0/5 5/5 25/95 25.1/100 35/100 35.1/5 45/5
# [14] = RP, Waters CORTECS T3, 100 × 2.1 mm, 2.7 µm, 0.25 mL/min, estimated dead time 0.88 min; A: water + 0.1% formic acid, pH 3; B: methanol + 0.1% formic acid, pH 3; gradient (min/%B) 0/0 1/0 6/5 30/100 35/100 35.1/0 40/0
# [15] = RP, Waters CORTECS T3, 100 × 2.1 mm, 2.7 µm, 0.1 mL/min, estimated dead time 2.2 min; A: water + 0.1% formic acid, pH 3; B: methanol + 0.1% formic acid, pH 3; gradient (min/%B) 0/5 5/5 25/95 25.1/100 35/100 35.1/5 45/5
# [16] = RP, Waters CORTECS T3, 100 × 2.1 mm, 2.7 µm, 0.3 mL/min, estimated dead time 0.73 min; A: water + 0.1% formic acid, pH 3; B: methanol + 0.1% formic acid, pH 3; gradient (min/%B) 0/0 1/0 6/5 30/100 35/100 35.1/0 40/0; remark: listed apart in the source
# [17] = RP, Waters CORTECS T3, 100 × 2.1 mm, 2.7 µm, 0.3 mL/min, estimated dead time 0.73 min; A: water + 0.1% formic acid, pH 3; B: methanol + 0.1% formic acid, pH 3; gradient (min/%B) 0/0 5/0 25/100 30/100 30.1/0 35/0; remark: listed apart in the source
# [18] = RP, Waters ACQUITY UPLC BEH C18, 100 × 2.1 mm, 1.7 µm, 0.1 mL/min, estimated dead time 2.2 min; A: water + 0.045% formic acid + 0.11% ammonium hydroxide, pH 7; B: methanol; gradient (min/%B) 0/5 5/5 25/95 25.1/100 35/100 35.1/5 45/5
# [19] = RP, Waters CORTECS T3, 100 × 2.1 mm, 2.7 µm, 0.25 mL/min, estimated dead time 0.88 min; A: water + 0.1% formic acid, pH 3; B: methanol + 0.1% formic acid, pH 3; gradient (min/%B) 0/5 5/5 25/95 25.1/100 35/100 35.1/5 45/5
# [20] = RP, Waters ACQUITY UPLC BEH C18, 100 × 2.1 mm, 1.7 µm, 0.2 mL/min, estimated dead time 1.1 min; A: water + 0.1% formic acid, pH 3; B: methanol + 0.1% formic acid, pH 3; gradient (min/%B) 0/5 5/5 25/100 30/100 30.1/5 35/5
# [21] = RP, Waters CORTECS T3, 100 × 2.1 mm, 2.7 µm, 0.2 mL/min, estimated dead time 1.1 min; A: water + 0.1% formic acid, pH 3; B: methanol + 0.1% formic acid, pH 3; gradient (min/%B) 0/0 1/0 6/5 30/100 35/100 35.1/0 40/0; remark: listed apart in the source
# [22] = RP, Waters CORTECS T3, 100 × 2.1 mm, 2.7 µm, 0.2 mL/min, estimated dead time 1.1 min; A: water + 0.1% formic acid, pH 3; B: methanol + 0.1% formic acid, pH 3; gradient (min/%B) 0/5 5/5 25/95 25.1/100 35/100 35.1/5 45/5
# [23] = HILIC, Merck SeQuant ZIC-HILIC, 150 × 2.1 mm, 5 µm, 0.75 mL/min, estimated dead time 0.44 min; A: water + 0.1% acetic acid + 10 mM ammonium acetate, pH 4; B: 5% water + 95% acetonitrile + 0.1% acetic acid + 10 mM ammonium acetate, pH 4; gradient (min/%B) 0/95 5/95 20/57 25/57 30/95 40/95
smiles,measurement,setting,value
NC(N)=N[C@@H](CC(=O)O)C(=O)O [N-AMIDINO-L-ASPARTATE],LC retention time,[1],1.78 min
same,LC retention time,[2],0.89 min
same,LC retention time,[3],12.7 min
same,LC retention time,[4],14.5 min
CC(C)=CC(=O)SCCNC(=O)CCNC(=O)C(O)C(C)(C)COP(=O)(O)OP(=O)(O)OCC1OC(n2cnc3c(N)ncnc32)C(O)C1OP(=O)(O)O (stereo not drawn) [3-METHYLCROTONYL-COA],LC retention time,[5],8.78 min
Nc1cccc2ccccc12 [1-NAPHTHYLAMINE],LC retention time,[6],14.7 min
same,LC retention time,[1],15.2 min
same,LC retention time,[7],10.2 min
same,LC retention time,[8],13.5 min
same,LC retention time,[2],11.5 min
same,LC retention time,[9],12.1 min
same,LC retention time,[10],10.3 min
same,LC retention time,[11],11.8 min
same,LC retention time,[3],30.6 min
same,LC retention time,[12],16.5 min
same,LC retention time,[13],14.5 min
same,LC retention time,[14],12.6 min
same,LC retention time,[15],16.1 min
Cc1cc2nc3c(=O)[nH]c(=O)nc-3n(CC(O)C(O)C(O)COP(=O)(O)OP(=O)(O)OCC3OC(n4cnc5c(N)ncnc54)C(O)C3O)c2cc1C (stereo not drawn) [FLAVIN ADENINE DINUCLEOTIDE],LC retention time,[16],12.1 min
O=CNCC(=O)O [N-FORMYLGLYCINE],LC retention time,[17],0.91 min
CNCCc1c[nH]c2ccccc12 [N-METHYLTRYPTAMINE],LC retention time,[6],11.1 min
same,LC retention time,[1],12.5 min
same,LC retention time,[18],14.4 min
same,LC retention time,[7],8.14 min
same,LC retention time,[8],11.2 min
same,LC retention time,[2],9.75 min
same,LC retention time,[9],9.68 min
same,LC retention time,[10],8.19 min
same,LC retention time,[11],9.8 min
same,LC retention time,[12],13.3 min
same,LC retention time,[13],10.7 min
same,LC retention time,[14],10.4 min
same,LC retention time,[15],13.1 min
Nc1ncnc2c1ncn2C1OC(COP(=O)(O)OP(=O)(O)OC2OC(CO)C(O)C(O)C2O)C(O)C1O (stereo not drawn) [ADENOSINE 5'-DIPHOSPHOGLUCOSE],LC retention time,[17],0.89 min
same,LC retention time,[19],1.08 min
same,LC retention time,[20],1.56 min
same,LC retention time,[16],0.92 min
same,LC retention time,[21],1.35 min
O=c1ccn(C2CC(O)C(COP(=O)(O)O)O2)c(=O)[nH]1 (stereo not drawn) [2'-DEOXYURIDINE 5'-MONOPHOSPHATE],LC retention time,[22],2.67 min
same,LC retention time,[19],1.08 min
same,LC retention time,[16],0.92 min
same,LC retention time,[21],1.35 min
same,LC retention time,[4],13.3 min
COC1OC(CO)C(O)C(O)C1O [METHYL BETA-D-GALACTOSIDE],LC retention time,[4],4.84 min
same,LC retention time,[23],5.01 min
O=c1[nH]c(=O)c2ncn(C3OC(COP(=O)(O)O)C(O)C3O)c2[nH]1 (stereo not drawn) [XANTHOSINE 5'-MONOPHOSPHATE],LC retention time,[22],2.67 min
same,LC retention time,[17],0.93 min
same,LC retention time,[19],1.08 min
same,LC retention time,[16],0.92 min
same,LC retention time,[21],1.35 min
"O=c1[nH]c(=O)c2nccnc2[nH]1 [2,4-DIHYDROXYPTERIDINE]",LC retention time,[12],5.19 min
same,LC retention time,[4],1.7 min
same,LC retention time,[23],1.46 min
Cn1cncc1CC(NC(=O)CCN)C(=O)O [L-ANSERINE],LC retention time,[6],1.42 min
same,LC retention time,[22],2.43 min
same,LC retention time,[3],4.86 min
same,LC retention time,[5],1.41 min
same,LC retention time,[4],15 min
O=C(O)CCCCCCCCCO [10-HYDROXYDECANOATE],LC retention time,[17],17.3 min
same,LC retention time,[19],17.7 min
same,LC retention time,[20],18.3 min
same,LC retention time,[23],1.13 min
NC(=O)CC[C@H](N)C(=O)O [L-GLUTAMINE],LC retention time,[22],2.48 min
same,LC retention time,[3],4.84 min
same,LC retention time,[4],13 min
same,LC retention time,[23],12.9 min
N[C@H](CO)Cc1cnc[nH]1 [L-HISTIDINOL],LC retention time,[6],1.79 min
same,LC retention time,[18],3.33 min
same,LC retention time,[3],4.68 min
same,LC retention time,[13],1.54 min
same,LC retention time,[4],11.4 min
O=c1[nH]cc(CO)c(=O)[nH]1 [5-HYDROXYMETHYLURACIL],LC retention time,[19],1.06 min
same,LC retention time,[20],1.41 min
same,LC retention time,[16],0.9 min
CC(=O)NCC(=O)O [N-ACETYLGLYCINE],LC retention time,[19],1.11 min
same,LC retention time,[20],1.46 min
same,LC retention time,[16],0.95 min
same,LC retention time,[4],11.2 min
